In patent publication US12577230B2, “2-(3-pyridin-2-yl-4-quinolin-4-yl-pyrazol-1-yl)- acetamide derivatives as inhibitors of transforming growth factor-beta receptor I/ALK5” (AGOMAB SPAIN S.L.U., priority 2020, dated 2026):

Key:
[1] = Determination of plasma stability in human plasma; format: in vitro ADME; details: 10 μM, 37° C.
Protocol: Determination of Plasma Stability of Some Compounds
Human plasma pooled from healthy donors extracted in citrate tubes was employed in the assay. Briefly, plates containing 10 μM compounds in plasma (total volume: 50 μL) were incubated at 37° C. at the different times (0, 30, 120 and 360 min). Then 100 μl Acetonitrile were added for precipitating plasma protein, and the plate was centrifuged at 46000 g for 60 min at 5° C. Supernatant was taken and analysed by UPLC/MS/MS for sample quantification. Stationary phase: Reverse phase Acquity UPLC® BEH C18 1.7 μm (2.1 mm×50 mm) (Waters). Mobile phase: 0.1% Formic acid water/0.1% formic acid in acetonitrile.
Flow: 0.6 ml/min. The chromatographic equipment employed was an UPL QSM Waters Acquity. Compound concentrations were calculated from the MS peak areas.

Human TGFβR-1 = target: T1, Human TGFβR-1 (Homo sapiens, UniProt P36897); assay: In vitro enzyme assay: inhibition of TGFβR-1 (ADP-Glo kinase assay); format: biochemical; details: TGFβR-1 kinase 50 ng/well, 50 μM ATP, 120 min RT
T1 construct: purchased Promega V4092
T1 sequence (P36897 34-503): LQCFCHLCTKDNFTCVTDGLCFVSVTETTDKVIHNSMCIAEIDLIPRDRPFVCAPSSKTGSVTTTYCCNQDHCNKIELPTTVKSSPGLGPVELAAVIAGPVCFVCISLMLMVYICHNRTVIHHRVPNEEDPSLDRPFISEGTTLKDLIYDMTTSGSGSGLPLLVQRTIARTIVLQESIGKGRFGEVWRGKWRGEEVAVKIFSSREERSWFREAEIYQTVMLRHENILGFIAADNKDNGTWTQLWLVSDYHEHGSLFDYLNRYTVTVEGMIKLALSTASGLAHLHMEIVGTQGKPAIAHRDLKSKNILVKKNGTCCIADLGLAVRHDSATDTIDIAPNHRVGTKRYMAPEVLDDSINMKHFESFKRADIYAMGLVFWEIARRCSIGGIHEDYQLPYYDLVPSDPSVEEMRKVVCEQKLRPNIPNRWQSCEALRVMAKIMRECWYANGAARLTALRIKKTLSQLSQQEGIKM
Excerpt: In the present application are used the following abbreviations, with the corresponding definitions: • AcOH: Acetic Acid • ACVR2B: activin A receptor, type IIB • ALKn: activin receptor-like kinase n • ATP: adenosin triphosphate • Boc2O: tert-butyl dicarbonate • Boc: tert-Butoxycarbonyl • Clint: Intrinsic clearance • DIPEA: N,N-Diisopropylethylamine • DMA: Dimethylacetamide • DMAP: 4-Dimethylaminopyridine • DMF: N,N-Dimethylformamide • DMSO: Dimethyl sulfoxide • EDCl: N-(3-Dimethylaminopropyl)-N′-ethylcarbodiimide) • Et3N: Triethylamine • EtOAc: Ethyl acetate • EtOH: ethanol • FBS: Fetal bovine serum • H: hour • HATU: 1-[Bis(dimethylamino)methylene]-1H-1,2,3-triazolo[4,5-b]pyridinium 3-oxide hexafluorophosphate • HOBT: Hydroxybenzotriazole • HPLC: High-performance liquid chromatography • ^1H-NMR: Proton nuclear magnetic resonance • K2EDTA: ethylenediaminetetracetic acid dipotassium salt • LC: Liquid chromatography • LiHMDS: Lithium bis(trimethylsilyl)amide • LLOQ: lower limit of quantification • MeCN: Acetonitrile • MeOH: Methanol • Min: minutes • MS: Mass spectroscopy • MTBE: Methyl tert-butyl ether • NBS: N-Bromosuccinimide • NaCMC: Sodium carboxymethyl cellulose • Rt: retention time • RT: room temperature • Sem: 2-(Trimethylsilyl)ethoxymethyl • TGFβ: transforming growth factor-β • THF: Tetrahydrofuran • THF:EtOH: Tetrahydrofuran:ethanol • UPLC: ultra high-performance liquid chromatography • UV: Ultraviolet Pharmacological Activity In Vitro Enzyme Assay: Inhibition of TGFβR-1 Human TGFβR-1 inhibition experiments were carried out in a white 384-microplate low flange (Corning 3572) with ADP-Glo kinase Assay Kit (Promega V9101) and TGFβR-1 Kinase Enzyme System (Promega V4092). Test compounds and standard Galunisertib (Cayman 15312), 50 ng/well TGFβR-1 kinase and 50 μM ATP were added in a final volume of 10 μL/well, using Reaction buffer supplied by kit as assay buffer. The reaction mixture was incubated in gentle shaking for 120 min at RT, after incubation of 10 μL of ADP-Glo Reagent was added and incubated in gentle shaking for 40 min at RT. 20 μL of Kinase Detection Reagent was added and plate was incubated in gentle shaking for 30 min at RT. Luminescence (1000 ms) was measured in Perkin Elmer EnSpire Multimode plate reader. Results

ALK-5 = target: T2, ALK-5 (Homo sapiens, UniProt P36897); assay: Determination of the intracellular TGF-beta kinase activity (ALK-5), AlphaLISA SureFire p-SMAD3 in A549 cells; format: cell-based; details: A549 cell line, TGF-β2 activated, p-SMAD3(Ser423/425)
T2 construct: endogenous in cells; host or cells: A549
T2 sequence (P36897 34-503): T1 sequence (P36897 34-503)
Protocol: Determination of the Intracellular TGF-Beta Kinase Activity (ALK-5)
The experiments were carried out in A549 cell line. 30000 cells were seeded in 200 μl of culture medium (Sigma D6046) supplemented with L-Glutamine (Sigma G7513), Penicillin/Streptomycin (Invitrogen 11058) and FBS (Sigma F9665) on a 96 wells microplate (Becton Dickinson 353072). After 16 hours medium was changed to serum free medium. Galunisertib, as inhibitor ligand (Cayman CAY-15312) and recombinant Human TGF-β2 (R&D Systems 302-B2-002) as activator of the ALK-5, were added in their corresponding wells and incubated following the instructions of the Alphascreen AlphaLISA@SureFire® Ultra™ p-SMAD3(Ser423/425) Kit (Perkin Elmer ALSU-PSM3-A500).

Structure (SMILES): Cc1cccc(-c2nn(CC(=O)Nc3cc(F)cc(C(=O)OCC4CC4)c3)cc2-c2ccnc3ccccc23)n1 [Comparative example 1, Cyclopropylmethyl 3-fluoro-5-(2-(3-(6-methylpyridin-2-yl)-4-(quinolin-4-yl)-1H-pyrazol-1-yl)acetamido)benzoate, reference compound]
- remaining percentage 0 min [1]: 100%
- remaining percentage 30 min [1]: 100%
- remaining percentage 120 min [1]: 88%
- remaining percentage 360 min [1]: 87%

Structure (SMILES): COC(=O)c1cc(Cl)cc(NC(=O)Cn2cc(-c3ccnc4ccccc34)c(-c3cccc(C)n3)n2)c1 [Comparative example 2, methyl 3-chloro-5-(2-(3-(6-methylpyridin-2-yl)-4-(quinolin-4-yl)-1H-pyrazol-1-yl)acetamido)benzoate, reference compound]
- remaining percentage 0 min [1]: 100%
- remaining percentage 30 min [1]: 83%
- remaining percentage 120 min [1]: 69%
- remaining percentage 360 min [1]: 67%

Structure (SMILES): Cc1cccc(-c2nn(CC(=O)Nc3cc(F)cc(C(=O)OCCO)c3)cc2-c2ccnc3ccccc23)n1 [Comparative example 3, 2-hydroxyethyl 3-fluoro-5-(2-(3-(6-methylpyridin-2-yl)-4-(quinolin-4-yl)-1H-pyrazol-1-yl)acetamido)benzoate, reference compound]
- remaining percentage 0 min [1]: 100%
- remaining percentage 30 min [1]: 99%
- remaining percentage 120 min [1]: 96%
- remaining percentage 360 min [1]: 73%

Structure (SMILES): Cc1cccc(-c2nn(CC(=O)Nc3cncc(C(=O)OCCN(C)C)c3)cc2-c2ccnc3ccccc23)n1 [Example 2, 2-(dimethylamino)ethyl 5-(2-(3-(6-methylpyridin-2-yl)-4-(quinolin-4-yl)-1H-pyrazol-1-yl)acetamido)nicotinate]
- IC50 (Human TGFβR-1): < 100 nM

Structure (SMILES): Cc1cccc(-c2nn(CC(=O)Nc3ccc(C(=O)OCCN(C)C)cn3)cc2-c2ccnc3ccccc23)n1 [Example 3, 2-(dimethylamino)ethyl 6-(2-(3-(6-methylpyridin-2-yl)-4-(quinolin-4-yl)-1H-pyrazol-1-yl)acetamido)nicotinate]
- IC50 (Human TGFβR-1): 100 to 250 nM

Structure (SMILES): Cc1cccc(-c2nn(CC(=O)Nc3cc(F)cc(C(=O)OCCN4CCOCC4)c3)cc2-c2ccnc3ccccc23)n1 [Example 4, 2-morpholinoethyl 3-fluoro-5-(2-(3-(6-methylpyridin-2-yl)-4-(quinolin-4-yl)-1H-pyrazol-1-yl)acetamido)benzoate]
- IC50 (Human TGFβR-1): 100 to 250 nM
- IC50 (ALK-5): < 1000 nM

Structure (SMILES): Cc1cccc(-c2nn(CC(=O)Nc3cc(F)cc(C(=O)OCCN4CCN(C)CC4)c3)cc2-c2ccnc3ccccc23)n1 [Example 6, 2-(4-methylpiperazin-1-yl)ethyl 3-fluoro-5-(2-(3-(6-methylpyridin-2-yl)-4-(quinolin-4-yl)-1H-pyrazol-1-yl)acetamido)benzoate]
- IC50 (Human TGFβR-1): 100 to 250 nM
- IC50 (ALK-5): < 1000 nM

Structure (SMILES): Cc1cccc(-c2nn(CC(=O)Nc3cc(F)cc(C(=O)OC4CCN(C)CC4)c3)cc2-c2ccnc3ccccc23)n1 [Example 8, 1-methylpiperidin-4-yl 3-fluoro-5-(2-(3-(6-methylpyridin-2-yl)-4-(quinolin-4-yl)-1H-pyrazol-1-yl)acetamido)benzoate]
- IC50 (Human TGFβR-1): 100 to 250 nM

Structure (SMILES): Cc1cccc(-c2nn(CC(=O)Nc3cc(F)cc(C(=O)O[C@H]4CN5CCC4CC5)c3)cc2-c2ccnc3ccccc23)n1 [Example 10, (R)-quinuclidin-3-yl 3-fluoro-5-(2-(3-(6-methylpyridin-2-yl)-4-(quinolin-4-yl)-1H-pyrazol-1-yl)acetamido)benzoate]
- IC50 (Human TGFβR-1): < 100 nM

Structure (SMILES): Cc1cccc(-c2nn(CC(=O)Nc3cc(F)cc(C(=O)O[C@@H]4CN5CCC4CC5)c3)cc2-c2ccnc3ccccc23)n1 [Example 11, (S)-quinuclidin-3-yl 3-fluoro-5-(2-(3-(6-methylpyridin-2-yl)-4-(quinolin-4-yl)-1H-pyrazol-1-yl)acetamido)benzoate]
- IC50 (Human TGFβR-1): < 100 nM

Structure (SMILES): Cc1cccc(-c2nn(CC(=O)Nc3cc(F)cc(C(=O)OC45CCN(CC4)CC5)c3)cc2-c2ccnc3ccccc23)n1 [Example 12, quinuclidin-4-yl 3-fluoro-5-(2-(3-(6-methylpyridin-2-yl)-4-(quinolin-4-yl)-1H-pyrazol-1-yl)acetamido)benzoate]
- IC50 (Human TGFβR-1): < 100 nM

Structure (SMILES): Cc1cccc(-c2nn(CC(=O)Nc3cc(F)cc(C(=O)OCCN4CCC4)c3)cc2-c2ccnc3ccccc23)n1 [Example 13, 2-(azetidin-1-yl)ethyl 3-fluoro-5-(2-(3-(6-methylpyridin-2-yl)-4-(quinolin-4-yl)-1H-pyrazol-1-yl)acetamido)benzoate]
- IC50 (Human TGFβR-1): 100 to 250 nM

Structure (SMILES): Cc1cccc(-c2nn(CC(=O)Nc3cc(F)cc(C(=O)OCCN4CC4)c3)cc2-c2ccnc3ccccc23)n1 [Example 14, 2-(aziridin-1-yl)ethyl 3-fluoro-5-(2-(3-(6-methylpyridin-2-yl)-4-(quinolin-4-yl)-1H-pyrazol-1-yl)acetamido)benzoate]
- IC50 (Human TGFβR-1): < 100 nM

Structure (SMILES): Cc1cccc(-c2nn(CC(=O)Nc3cc(F)cc(C(=O)OCCN)c3)cc2-c2ccnc3ccccc23)n1 [Example 16, 2-aminoethyl 3-fluoro-5-(2-(3-(6-methylpyridin-2-yl)-4-(quinolin-4-yl)-1H-pyrazol-1-yl)acetamido)benzoate]
- IC50 (Human TGFβR-1): < 100 nM

Structure (SMILES): CCNCCOC(=O)c1cc(F)cc(NC(=O)Cn2cc(-c3ccnc4ccccc34)c(-c3cccc(C)n3)n2)c1 [Example 17, 2-(ethylamino)ethyl 3-fluoro-5-(2-(3-(6-methylpyridin-2-yl)-4-(quinolin-4-yl)-1H-pyrazol-1-yl)acetamido)benzoate]
- IC50 (Human TGFβR-1): < 100 nM

Structure (SMILES): Cc1cccc(-c2nn(CC(=O)Nc3cc(F)cc(C(=O)OCCNC(C)C)c3)cc2-c2ccnc3ccccc23)n1 [Example 18, 2-(isopropylamino)ethyl 3-fluoro-5-(2-(3-(6-methylpyridin-2-yl)-4-(quinolin-4-yl)-1H-pyrazol-1-yl)acetamido)benzoate]
- IC50 (Human TGFβR-1): < 100 nM
- remaining percentage 0 min [1]: 100%
- remaining percentage 30 min [1]: 33.9%
- remaining percentage 120 min [1]: 11.1%
- remaining percentage 360 min [1]: 0.1%

Structure (SMILES): Cc1cccc(-c2nn(CC(=O)Nc3cc(F)cc(C(=O)OCC4CCNCC4)c3)cc2-c2ccnc3ccccc23)n1 [Example 20, piperidin-4-ylmethyl 3-fluoro-5-(2-(3-(6-methylpyridin-2-yl)-4-(quinolin-4-yl)-1H-pyrazol-1-yl)acetamido)benzoate]
- IC50 (Human TGFβR-1): 100 to 250 nM
